Data taken from ChEMBL document CHEMBL1136955, “Compelling P1 substituent affect on metalloprotease binding profile enables the design of a novel cyclohexyl core scaffold with excellent MMP selectivity and HER-2 sheddase inhibition” (Bioorg Med Chem Lett, 2009).

Assays:
[1] = biological target: 72 kDa type IV collagenase (Homo sapiens, UniProt P08253); experiment: Inhibition of human MMP2
[2] = biological target: Matrix metalloproteinase-9 (Homo sapiens, UniProt P14780); experiment: Inhibition of human MMP9
[3] = biological target: Stromelysin-1 (Homo sapiens, UniProt P08254); experiment: Inhibition of human MMP3
[4] = biological target: T1, Disintegrin and metalloproteinase domain-containing protein 10 (Homo sapiens, UniProt O14672); experiment: Inhibition of human recombinant ADAM10
T1 sequence (O14672 whole entry): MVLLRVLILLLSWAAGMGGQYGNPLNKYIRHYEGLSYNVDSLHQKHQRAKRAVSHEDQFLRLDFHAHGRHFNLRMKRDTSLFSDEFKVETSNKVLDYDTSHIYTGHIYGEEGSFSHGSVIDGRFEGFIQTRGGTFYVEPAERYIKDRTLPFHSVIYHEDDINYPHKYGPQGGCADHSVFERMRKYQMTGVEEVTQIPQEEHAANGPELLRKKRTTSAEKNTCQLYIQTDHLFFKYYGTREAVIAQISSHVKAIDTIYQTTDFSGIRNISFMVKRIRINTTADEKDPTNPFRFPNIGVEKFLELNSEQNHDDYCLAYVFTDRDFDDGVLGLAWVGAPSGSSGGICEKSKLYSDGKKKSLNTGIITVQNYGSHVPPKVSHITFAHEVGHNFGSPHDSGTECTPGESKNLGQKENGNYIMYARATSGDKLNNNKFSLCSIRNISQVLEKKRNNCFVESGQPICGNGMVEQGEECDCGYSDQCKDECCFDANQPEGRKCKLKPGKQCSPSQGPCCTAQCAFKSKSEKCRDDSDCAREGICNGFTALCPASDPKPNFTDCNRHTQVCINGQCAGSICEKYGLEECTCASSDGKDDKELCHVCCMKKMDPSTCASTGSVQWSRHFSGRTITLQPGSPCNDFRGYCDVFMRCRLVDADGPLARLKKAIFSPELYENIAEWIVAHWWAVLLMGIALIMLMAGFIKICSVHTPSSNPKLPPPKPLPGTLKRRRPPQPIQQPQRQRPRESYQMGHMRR

[5] = biological target: T2, Interstitial collagenase (Homo sapiens, UniProt P03956); experiment: Inhibition of human MMP1
T2 sequence (P03956 whole entry): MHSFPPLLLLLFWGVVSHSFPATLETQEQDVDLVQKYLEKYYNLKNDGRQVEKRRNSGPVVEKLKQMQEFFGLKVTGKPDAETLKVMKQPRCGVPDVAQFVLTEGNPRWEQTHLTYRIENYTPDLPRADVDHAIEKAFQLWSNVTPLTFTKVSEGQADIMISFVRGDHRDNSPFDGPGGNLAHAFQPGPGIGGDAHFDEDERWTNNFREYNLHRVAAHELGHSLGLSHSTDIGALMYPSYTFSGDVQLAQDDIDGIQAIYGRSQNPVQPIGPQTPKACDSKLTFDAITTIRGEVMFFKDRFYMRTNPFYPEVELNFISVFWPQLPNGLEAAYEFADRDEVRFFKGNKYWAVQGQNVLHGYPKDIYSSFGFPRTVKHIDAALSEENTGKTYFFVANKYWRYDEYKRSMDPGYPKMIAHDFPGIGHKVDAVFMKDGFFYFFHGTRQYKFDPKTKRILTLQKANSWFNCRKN

[6] = organism: Homo sapiens; experiment: Selectivity ratio of IC50 for human MMP2 to IC50 for human ADAM10

Chain of 72 kDa type IV collagenase (P08253 whole entry): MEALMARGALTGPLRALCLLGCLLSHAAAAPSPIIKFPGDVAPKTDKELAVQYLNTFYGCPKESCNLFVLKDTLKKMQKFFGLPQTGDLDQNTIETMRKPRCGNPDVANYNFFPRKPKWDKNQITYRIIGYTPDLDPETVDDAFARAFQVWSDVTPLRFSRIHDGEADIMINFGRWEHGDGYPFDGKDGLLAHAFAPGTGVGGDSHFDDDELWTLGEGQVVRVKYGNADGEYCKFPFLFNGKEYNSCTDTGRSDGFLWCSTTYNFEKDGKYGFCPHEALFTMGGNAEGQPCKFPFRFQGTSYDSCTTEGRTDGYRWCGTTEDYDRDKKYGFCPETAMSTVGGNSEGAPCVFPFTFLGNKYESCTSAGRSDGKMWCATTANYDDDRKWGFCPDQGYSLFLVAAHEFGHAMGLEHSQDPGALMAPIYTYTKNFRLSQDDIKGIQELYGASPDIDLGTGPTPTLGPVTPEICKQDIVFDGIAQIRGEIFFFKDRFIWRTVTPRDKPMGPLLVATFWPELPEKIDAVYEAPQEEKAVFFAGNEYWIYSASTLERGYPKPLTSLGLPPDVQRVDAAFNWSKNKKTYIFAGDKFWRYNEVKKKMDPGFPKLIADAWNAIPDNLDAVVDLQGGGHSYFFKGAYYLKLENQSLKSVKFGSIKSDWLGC
Chain of Matrix metalloproteinase-9 (P14780 whole entry): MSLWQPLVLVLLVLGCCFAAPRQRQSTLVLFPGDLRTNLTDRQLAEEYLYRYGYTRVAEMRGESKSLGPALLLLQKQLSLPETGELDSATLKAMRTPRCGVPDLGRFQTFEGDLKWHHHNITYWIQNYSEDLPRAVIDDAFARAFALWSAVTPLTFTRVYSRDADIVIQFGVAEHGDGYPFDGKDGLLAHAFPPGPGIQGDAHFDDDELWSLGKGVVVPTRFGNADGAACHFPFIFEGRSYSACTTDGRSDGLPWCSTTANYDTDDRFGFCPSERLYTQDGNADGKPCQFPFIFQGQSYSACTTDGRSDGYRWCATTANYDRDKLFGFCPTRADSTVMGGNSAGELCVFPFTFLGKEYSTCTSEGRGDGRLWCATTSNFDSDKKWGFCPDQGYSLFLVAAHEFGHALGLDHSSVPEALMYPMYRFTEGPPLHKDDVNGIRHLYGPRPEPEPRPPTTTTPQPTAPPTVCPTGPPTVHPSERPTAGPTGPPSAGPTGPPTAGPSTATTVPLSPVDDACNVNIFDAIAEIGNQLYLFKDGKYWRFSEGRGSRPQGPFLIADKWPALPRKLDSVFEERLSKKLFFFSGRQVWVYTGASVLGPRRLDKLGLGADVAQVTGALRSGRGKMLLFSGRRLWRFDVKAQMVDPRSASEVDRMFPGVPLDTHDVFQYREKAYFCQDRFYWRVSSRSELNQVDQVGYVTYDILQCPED
Chain of Stromelysin-1 (P08254 whole entry, the tested form may be a part): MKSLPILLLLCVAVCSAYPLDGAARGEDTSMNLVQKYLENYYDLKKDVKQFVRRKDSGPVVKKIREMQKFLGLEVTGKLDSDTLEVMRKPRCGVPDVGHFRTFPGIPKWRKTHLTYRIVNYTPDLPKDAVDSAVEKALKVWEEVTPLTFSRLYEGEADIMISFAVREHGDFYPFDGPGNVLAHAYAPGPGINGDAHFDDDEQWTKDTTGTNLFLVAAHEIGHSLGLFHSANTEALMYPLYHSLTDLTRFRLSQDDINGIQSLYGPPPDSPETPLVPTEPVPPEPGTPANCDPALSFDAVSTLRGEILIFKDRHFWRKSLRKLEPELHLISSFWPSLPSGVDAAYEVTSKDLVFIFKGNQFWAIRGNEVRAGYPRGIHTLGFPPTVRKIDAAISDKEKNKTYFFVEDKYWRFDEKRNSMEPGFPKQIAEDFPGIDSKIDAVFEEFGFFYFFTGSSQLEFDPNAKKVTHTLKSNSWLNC

Work on `O=C(NO)[C@H]1CC2(CC2)CN[C@@H]1C(=O)N1CCC(c2ccccc2)C1` (some centres undefined) yielded an IC50 [1] of 998 nM, an IC50 [2] of over 5000 nM and an IC50 [3] of over 5000 nM.
`O=C(NO)[C@H]1CCCC[C@@H]1C(=O)N1CCN(c2ccccc2)CC1` showed an IC50 [4] of 1540 nM, an IC50 [5] of over 5000 nM and an IC50 [1] of 180 nM.
Work on `O=C(NO)[C@H]1C[C@@H](CC(=O)N2CCCCC2)CC[C@@H]1C(=O)N1CCN(c2ccccc2)CC1` yielded an IC50 [4] of 15 nM, an IC50 [5] of over 5000 nM and an IC50 [1] of 100 nM. The IC50 [2] was 683 nM and the IC50 [3] was over 5000 nM.
`O=C(NO)[C@H]1C[C@H](CC(=O)N2CCCCC2)CC[C@@H]1C(=O)N1CCN(c2ccccc2)CC1` showed an IC50 [1] of 1090 nM.
`O=C(NO)[C@H]1CC(CC(=O)N2CCOCC2)CC[C@@H]1C(=O)N1CCN(c2ccccc2)CC1` (some centres undefined) was tested, and the IC50 [4] was 83 nM and the IC50 [1] was 236 nM.
For `CC(C)c1cccc(C2CCN(C(=O)[C@H]3CC[C@H](CC(=O)N4CCCCC4)C[C@@H]3C(=O)NO)CC2)c1`, the IC50 [4] was 21 nM, the IC50 [5] was over 5000 nM and the IC50 [1] was over 5000 nM. It also gave an IC50 [2] of over 5000 nM and an IC50 [3] of over 5000 nM.
Molecule `CC(C)c1cccc(C2CCN(C(=O)[C@H]3CC[C@@H](CC(=O)N4CCCCC4)C[C@@H]3C(=O)NO)CC2)c1` has an IC50 [4] of 915 nM and an IC50 [1] of over 5000 nM.
`O=C(CC1CN[C@H](C(=O)N2CCC(c3ccccc3)C2)[C@@H](C(=O)NO)C1)NCCCCCNC(=O)OCc1ccccc1` (mixture of isomers) showed an IC50 [4] of 302 nM, an IC50 [5] of over 5000 nM and an IC50 [1] of 1280 nM. The IC50 [2] was 1790 nM and the IC50 [3] was 5000 nM.
Molecule `O=C(NO)[C@H]1CC(CC(=O)N2CCCC2)CN[C@@H]1C(=O)N1CCN(c2ccccc2)CC1` (mixture of isomers) has an IC50 [4] of 19 nM and an IC50 [1] of 8 nM.
`NCCCCCNC(=O)CC1CN[C@H](C(=O)N2CCC(c3ccccc3)C2)[C@@H](C(=O)NO)C1` (mixture of isomers) gave an IC50 [4] of 161 nM, an IC50 [5] of over 5000 nM and an IC50 [1] of 1660 nM. For the same molecule, the IC50 [2] was over 5000 nM and the IC50 [3] was over 5000 nM.
In the case of `CN1CC(CC(=O)N2CCCC2)C[C@H](C(=O)NO)[C@H]1C(=O)N1CCN(c2ccccc2)CC1` (mixture of isomers), the IC50 [4] is reported as 167 nM and the IC50 [1] is reported as 92 nM.
With `CN1CC(CC(=O)N2CCCCC2)C[C@H](C(=O)NO)[C@H]1C(=O)N1CCN(c2ccccc2)CC1` (mixture of isomers) the IC50 [4] was 77 nM and the IC50 [1] was 81 nM.
Molecule `O=C(NO)[C@H]1CC(CC(=O)N2CCCCC2)CC[C@@H]1C(=O)N1CCN(c2ccccc2)CC1` (mixture of isomers) has an IC50 [5] of over 5000 nM, an IC50 [1] of 321 nM and an IC50 [2] of 1880 nM. For the same molecule, the IC50 [3] was over 5000 nM.
Molecule `O=C(NO)[C@H]1CC(CC(=O)N2CC[C@@H](O)C2)CC[C@@H]1C(=O)N1CCN(c2ccccc2)CC1` (mixture of isomers) has an IC50 [4] of 111 nM and an IC50 [1] of 156 nM.
`CN1CCN(C(=O)CC2CC[C@H](C(=O)N3CCN(c4ccccc4)CC3)[C@@H](C(=O)NO)C2)CC1` (mixture of isomers) showed an IC50 [4] of 30 nM, an IC50 [5] of over 5000 nM and an IC50 [1] of 68 nM. The IC50 [2] was 2500 nM and the IC50 [3] was over 5000 nM.
For `O=C(NO)[C@H]1CC2(CC[C@@H]1C(=O)N1CCN(c3ccccc3)CC1)CC2` (mixture of isomers), the IC50 [4] was 196 nM, the IC50 [5] was over 5000 nM and the IC50 [1] was 106 nM. The IC50 [2] was 577 nM, the IC50 [3] was over 5000 nM and the Ratio IC50 [6] was 2.
`O=C(NO)[C@H]1CC(CC(=O)N2CCCC2)CC[C@@H]1C(=O)N1CCN(c2ccccc2)CC1` (mixture of isomers) was tested, and the IC50 [4] was 64 nM, the IC50 [5] was over 5000 nM and the IC50 [1] was 271 nM. For the same molecule, the IC50 [2] was 1440 nM and the IC50 [3] was over 5000 nM.
